Values after ≈ are worked out from the molar mass of the structure shown.
Assay: Approximate solubility of Form A in solvents at room temperature
Assay type: physicochemical
Experimental: The approximate solubility of Form A was estimated in 27 solvents or co-solvents at room temperature. Approximately 2 mg of solids were weighed into each 3 mL glass vial, to which each of the solvents was added in stepwise until the solids dissolved completely or the total volume reaches 2.0 mL. Solubility ranges were used to guide the solvent selection for polymorph screening described in later examples.

In the case of `C[C@@H](COCCC(=O)N1CCN(c2ncc(C(F)(F)F)cn2)CC1)Nc1cn[nH]c(=O)c1C(F)(F)F` [Form A, 5-[[(2S)-1-(3-oxo-3-[4-[5-(trifluoromethyl)pyrimidin-2-yl]piperazin-1-yl]propoxy)propan-2-yl]amino]-4-(trifluoromethyl)-2,3-dihydropyridazin-3-one], the solubility (organic solvent or mixture, thermodynamic from solid, 1,4-Dioxane) is reported as 5000 to 10000 µg/mL (≈ 9.55 to 19.1 mM), the solubility (organic solvent or mixture, thermodynamic from solid, 2-MeTHF) is reported as < 1000 µg/mL and the solubility (organic solvent or mixture, thermodynamic from solid, ACN) is reported as 11000 to 22000 µg/mL (≈ 21 to 42 mM). The solubility (organic solvent or mixture, thermodynamic from solid, ACN/MIBK (1:9) v:v) was 2000 to 5000 µg/mL (≈ 3.82 to 9.55 mM), the solubility (organic solvent or mixture, thermodynamic from solid, ACN/MTBE (1:9) v:v) was 1200 to 2400 µg/mL (≈ 2.29 to 4.59 mM) and the solubility (organic solvent or mixture, thermodynamic from solid, ACN/THF (1:4) v:v) was 5000 to 10000 µg/mL (≈ 9.55 to 19.1 mM). For the same compound, the solubility (organic solvent or mixture, thermodynamic from solid, ACN/THF (1:9) v:v) was 10000 to 20000 µg/mL (≈ 19.1 to 38.2 mM), the solubility (organic solvent or mixture, thermodynamic from solid, Acetone) was > 40000 µg/mL and the solubility (organic solvent or mixture, thermodynamic from solid, Acetone/n-Heptane (1:4) v:v) was < 1300 µg/mL. The solubility (organic solvent or mixture, thermodynamic from solid, Acetone/n-Heptane (1:9) v:v) was < 1000 µg/mL, the solubility (organic solvent or mixture, thermodynamic from solid, CHCl3) was 22000 to 44000 µg/mL (≈ 42 to 84.1 mM) and the solubility (organic solvent or mixture, thermodynamic from solid, DCM) was 19000 to 38000 µg/mL (≈ 36.3 to 72.6 mM). The solubility (organic solvent or mixture, thermodynamic from solid, DCM/MTBE (1:9) v:v) was < 1200 µg/mL, the solubility (organic solvent or mixture, thermodynamic from solid, DMAc) was 22000 to 44000 µg/mL (≈ 42 to 84.1 mM) and the solubility (organic solvent or mixture, thermodynamic from solid, DMSO) was > 42000 µg/mL. For the same compound, the solubility (organic solvent or mixture, thermodynamic from solid, EtOAc) was 1900 to 4800 µg/mL (≈ 3.63 to 9.17 mM), the solubility (organic solvent or mixture, thermodynamic from solid, EtOH) was < 1100 µg/mL and the solubility (organic solvent or mixture, thermodynamic from solid, IPA) was < 1100 µg/mL. The solubility (organic solvent or mixture, thermodynamic from solid, IPAc) was < 1100 µg/mL, the solubility (organic solvent or mixture, thermodynamic from solid, MIBK) was < 1000 µg/mL and the solubility (organic solvent or mixture, thermodynamic from solid, MTBE) was < 1000 µg/mL. For the same compound, the solubility (organic solvent or mixture, thermodynamic from solid, MeOH) was < 1100 µg/mL, the solubility (organic solvent or mixture, thermodynamic from solid, NMP) was > 38000 µg/mL and the solubility (organic solvent or mixture, thermodynamic from solid, THF) was < 1100 µg/mL. For the same compound, the solubility (organic solvent or mixture, thermodynamic from solid, Toluene) was < 1000 µg/mL, the solubility (organic solvent or mixture, thermodynamic from solid, n-Heptane) was < 1000 µg/mL and the solubility (water, thermodynamic from solid, H2O) was < 1100 µg/mL.

— patent US12371421B2, “Solid forms of a PARP7 inhibitor” (Ribon Therapeutics, Inc., priority 2019, dated 2025)
